What was measured:
PEP model in mice = conditions: in vivo model of PEP in mice; earlier work; cited from earlier work
AR42J cells = test: Cell necrosis assay in AR42J cells; type: cell-based; conditions: FK506 24 μM, CsA 16 μM
Protocol: (§1) Acinar cells were incubated in a 48-well plate with 50 μg/ml of propidium iodide (PI) for 30 min prior to addition of RC. Fluorescence was measured at 536 nm excitation and 617 nm emission wavelengths over time a time course of up to 6 hr. Fluorescence was measured after cell lysis with 0.5% Triton-X 100 was used to normalize the results relative to total DNA.

[1] = test system: duct manipulation (DM) model in mice; test: Duct manipulation (DM) mild model with intraductal Cn inhibitors; type: in vivo, mouse; conditions: FK506 1 μM, CsA 10 μM
Protocol: PEP was induced as previously described^73. Briefly, 100 μl iohexol (Omnipaque, GE Healthcare, Princeton, N.J.) was infused retrograde into the biliopancreatic duct at a rate of 20 μl/min for 5 min. Mice from the ductal manipulation (DM) group received retrograde infusion of 50 μl normal saline into pancreatic ductal at a lower rate of 10 μl/min for 5 min. Mice were euthanized 24 hr after PEP induction by CO2 inhalation and cervical dislocation. Mice from the sham group received laparotomy only. The pancreas, duodenum, and spleen were placed en bloc in a cassette in order to maintain anatomical orientation (FIG. 18A). The tissues were fixed in 4% paraformaldehyde at room temperature for 24 hr. Paraffin-embedded sections were stained with hematoxylin and eosin (HE). Ten systematically selected fields at 200× magnification were graded in a blinded fashion from the head of the pancreas, which was identified by its juxtaposition to the duodenum. The grading score gave equal weight (from 0 to 3) for edema, inflammatory infiltration, and necrosis, as described^5. Edema indices were further delineated objectively by performing intensity thresholding using ImageJ software (NIH, Bethesda, Md.). […] Labelled areas within the parenchyma were marked as edema, and their surface area was calculated as a percentage of the total parenchymal area.

calcineurin = test: NFAT-luciferase activity assay in mouse primary acinar cells; type: cell-based; conditions: 30 min pre-treatment; FK506 24 μM, CsA 16 μM, BAPTA-AM 64 μM
Protocol: Acinar cells were infected with Ad-NFAT-luciferase following a previously described procedure^10, 15, 16. The construct includes a luciferase gene placed downstream of an IL-4 promoter which contains nine tandem NFAT binding sites^10. Acinar cells were incubated with the NFAT-driven luciferase adenovirus for 1.5 hr prior to stimulation. All of the stated inhibitors were added for 30 min prior to stimulation with RC. NFAT-luciferase was measured using the luciferase assay system. Briefly, cells were spun at 1,000 rpm for 5 min, washed with PBS, and lysed using reporter lysis 5× buffer (Promega #E397A, Madison, Wis.). Samples were vortexed and spun at 12,000 g for 2 min. Supernatant was plated, and luminescence was measured using a Synergy H1 plate reader (BioTek, Winooski, Vt.) and normalized to total protein.

[2] = Dissolution in ready-to-use iohexol formulation; type: physicochemical; conditions: FK506 1 μM, CsA 10 μM
[3] = test system: IL-6, GADD45B, IL-1β expression; test: Real-time PCR gene expression from the pancreatic head; type: in vivo, mouse; conditions: RC exposure, with or without FK506 pretreatment
Protocol: Total RNA from the pancreatic head was obtained by homogenizing 40 mg of tissue in 2 ml of TRIzol reagent (Life Technologies; Grand Island N.Y.) at 4° C. and immediately flash frozen in liquid nitrogen. Samples were thawed on ice and centrifuged at 12,000×g for 10 min at 4° C. The supernatant was diluted with 200 μl of chloroform and centrifuged at 12,000×g for 15 min at 4° C. The upper aqueous phase was treated with 0.5 ml of isopropanol and centrifuged at 10,000×g for 10 min at 4° C. The pellet was resuspended with 150 μl of 75% ethanol and centrifuged at 7500×g for 5 min at 4° C. The pellet was air-dried and dissolved in 100 μl of nuclease-free water. Total RNA samples were used to generate cDNA using the iScript Advanced cDNA synthesis Kit (Bio Rad; Hercules, Calif.).
Quantitative real-time PCR (rtPCR) was performed to determine the relative expression of the cytokines IL-6 and IL-1β as well as the cell growth arrest and DNA-damage inducible gene GADD45B. The primer pairs for each as well as a GAPDH control were obtained as part of the PrimePCR-PreAMP SYBR Green Assay (Bio Rad; unique assay ID # qMmuCEP0054186, qMmuCID0005641, qMmuCEP0039581). rtPCR reactions were carried out in 20 μl volume reactions using the SsoAdvanced Universal Supermix SYBR Green system (Bio Rad). The reactions contained 1× SsoAdvanced Universal SYBR Green Supermix, 300 nM forward Primer, 300 nM reverse primer and 100 ng cDNA. rtPCR conditions were 95° C. for 10 sec and 60° C. for 30 sec for 35 cycles on a Bio Rad CFX96 Touch thermocycler (Bio Rad). Results for the expression of mRNA were normalized to expression of […] and are represented relative to expression levels for each of the control groups.

primary acinar cells = test: Cell necrosis assay (propidium iodide uptake) in primary acinar cells; type: cell-based, mouse; conditions: 6 hr incubation; U73122 5 μM, 2-APB 100 μM, BAPTA 64 μM, IKK-2 20 μM, FK506 24 μM, CsA 16 μM
Protocol: as §1

pancreatic NF-κB = test: Imaging pancreatic NF-κB bioluminescence in vivo; parameters: species or system mouse; conditions: FK506 treatment
Protocol: An AAV6-NF-κB-luciferase reporter was constructed, expanded in HEK293 cells, and purified as previously described^18-20, 39. A volume of 100 μl of virus (10^12 GCP/ml) was infused into the pancreaticobiliary duct at a rate of 10 μl/min using the same technique of RC infusion described above and recently published^21, 39. After a 5-week recovery from the surgery, mice underwent PEP induction with or without FK506 treatment. At varying time points after the surgery, ranging from 2 to 36 hr, bioluminescence signals were obtained by first giving a subcutaneous injection of luciferin (150 μg/g body weight) in the scruff of the neck 15 min before the start of imaging. The mice were briefly anesthetized with isoflurane and placed in the supine position in a bioluminescent imaging chamber (IVIS spectrum imager; Perkin Elmer, Waltham, Mass.) for 3-10 min. Average pixel intensity was measured from a pancreatic region of interest (in the upper abdomen). Raw time points from each mouse were normalized to its individual baseline intensity at time zero.

For `C=CC[C@@H]1/C=C(\C)C[C@H](C)C[C@H](OC)[C@H]2O[C@@](O)(C(=O)C(=O)N3CCCC[C@H]3C(=O)O[C@H](/C(C)=C/[C@@H]3CC[C@@H](O)[C@H](OC)C3)[C@H](C)[C@@H](O)CC1=O)[C@H](C)C[C@@H]2OC` [FK506, tacrolimus], the “effect of systemic frequent prophylactic dosing on PEP” value (PEP model in mice) is given as “prevented PEP”, the “effect on RC (12%)-induced acinar cell necrosis” value (AR42J cells) is given as “prevented” and the “effect on mild histological damage seen with DM” value [1] is given as “did not affect”. For the same molecule, the “effect on RC-induced rise in NFAT-luciferase” value (calcineurin) was “largely prevented”, the “dissolution in the ready-to-use iohexol formulation” value [2] was “easily dissolved” and the “gene expression of GADD45B” value [3] was “significant reduction”. The “gene expression of IL-1β” value [3] was “trend toward reduction”, the “gene expression of IL-6” value [3] was “significant reduction” and the “effect on RC (12%)-induced acinar cell injury (PI uptake)” value (primary acinar cells) was “prevented”. For the same molecule, the “effect on RC-induced pancreatic NF-κB” value (pancreatic NF-κB) was “markedly blunted”.
